In patent US7554012B2, “Plants and plant cells exhibiting resistance to AMPA, and methods for making the same” (priority 1998, dated 2009):
Where “and” joins values, the source holds several entries; their conditions need not be identical. Identical values can stand only once. Like-named read-outs stand apart in the source and are kept apart here.

Experiments:
PhnO enzyme = PhnO enzyme (Escherichia coli, UniProt P16691, P2A)
Procedure: The apparent Km (Km) and Vmax (Vmax) of PhnO enzyme were determined for the substrates aminomethlyphosphonate and acetyl-CoA. Determination of the PhnO Km and Vmax were made by endpoint kinetic analyses, determining the enzyme velocity in consuming each substrate at varying substrate concentrations, and plotting the inverse of the enzyme velocity versus the inverse of the substrate concentration to produce a Lineweaver-Burk plot of enzyme kinetics. The conversion of [^14C]-AMPA to N-acetyl-[^14C]-AMPA was monitored as in example 2, using enzyme in a desalted crude lysate of E. coli expressing phnO from pMON15032, produced as in example 4. […] Enzyme reactions were incubated at 37° C. for 5 minutes and quenched with 1 volume of 100 mM sodium acetate (NaOAc), pH 4.4, in ethanol. Samples were analyzed by HPLC to determine the amount of [^14C]-AMPA converted to N-acetyl-[^14C]-AMPA.

[1] = test system: wild type Coker 312 plants; assay: AMPA spray on cotton plants; type: in vivo, cotton (Gossypium hirsutum L.)
Procedure: Previously identified plants transformed with a double gene glyphosate resistance cassette comprised of EPSPS and GOX encoding genes were determined to be resistant to glyphosate when applied at 48 ounces per acre through the 6-7 leaf stage, however severe bleaching of the leaves was observed. This phytotoxic effect was presumed to be due to the formation of AMPA as a result of GOX mediated glyphosate degradation. To test this, AMPA was sprayed at three different rates onto wild type Coker 312 plants. […] To test this, cotton plants expressing GOX or GOX plus EPSPS alone or in combination with PhnO expression were treated with [^14C]-glyphosate, and the metabolism of the isotope labeled glyphosate was monitored in leaf tissue seven days after application.

[2] = test system: recombinant cotton line 3753 (EPSPS/GOX); assay: [^14C]-glyphosate metabolism in cotton line 3753; type: in vivo, cotton (Gossypium hirsutum L.); details: EPSPS/GOX Plants
Procedure: The metabolism of [^14C]-glyphosate in recombinant cotton lines 4268 (GOX/PhnO) and 3753 (EPSPS/GOX) was also studied. Plants in this study were treated as indicated above for cotton line 4416, by applying droplets of ROUNDUP ULTRA fortified with [^14C]-glyphosate to a single leaf on each plant at the three to four leaf stage. Treated leaves were harvested and rinsed with water, then ground and extracted, and extracts were analyzed by HPLC as described above for the presence of [^14C]-glyphosate, [^14C]-AMPA, and N-acetyl-[^14C]-AMPA. New growth, including the meristem and new leaves that emerged following application were also extracted and analyzed.

male gametes = details: under optimal conditions; cited from earlier work
female gametes = details: under optimal conditions; cited from earlier work
[3] = AMPA substrate 200 nm (nanomoles)

PhnO enzyme, sequence (P16691 whole entry P2A): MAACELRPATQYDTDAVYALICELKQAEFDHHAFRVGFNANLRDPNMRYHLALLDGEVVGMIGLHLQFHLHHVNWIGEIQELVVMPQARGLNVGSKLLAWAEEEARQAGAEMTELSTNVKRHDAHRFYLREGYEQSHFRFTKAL

NCP(=O)(O)O [AMPA, N-aminomethyl phosphonic acid]
% Turnover (PhnO enzyme; [3]): 39.5% | Velocity (PhnO enzyme; [3]): 79 nm per minute per mg of protei | % Turnover (PhnO enzyme; AMPA substrate 400 nm): 35.1% | Velocity (PhnO enzyme; AMPA substrate 400 nm): 140 nm per minute per mg of protei | % Turnover (PhnO enzyme; AMPA substrate 800 nm): 32.9% | Velocity (PhnO enzyme; AMPA substrate 800 nm): 263 nm per minute per mg of protei | % Turnover (PhnO enzyme; AMPA substrate 1200 nm): 26.8% | Velocity (PhnO enzyme; AMPA substrate 1200 nm): 322 nm per minute per mg of protei | % Turnover (PhnO enzyme; AMPA substrate 1600 nm): 26.2% | Velocity (PhnO enzyme; AMPA substrate 1600 nm): 426 nm per minute per mg of protei | % Turnover (PhnO enzyme; AMPA substrate 2000 nm): 22.1% | Velocity (PhnO enzyme; AMPA substrate 2000 nm): 442 nm per minute per mg of protei | % Turnover (PhnO enzyme; AMPA substrate 2400 nm): 19.2% | Velocity (PhnO enzyme; AMPA substrate 2400 nm): 461 nm per minute per mg of protei | % Turnover (PhnO enzyme; AMPA substrate 2800 nm): 17.6% | Velocity (PhnO enzyme; AMPA substrate 2800 nm): 493 nm per minute per mg of protei | % Turnover (PhnO enzyme; AMPA substrate 3200 nm): 17.3% | Velocity (PhnO enzyme; AMPA substrate 3200 nm): 554 nm per minute per mg of protei | % Turnover (PhnO enzyme; AMPA substrate 3600 nm): 14.5% | Velocity (PhnO enzyme; AMPA substrate 3600 nm): 522 nm per minute per mg of protei | % Turnover (PhnO enzyme; AMPA substrate 4000 nm): 13.6% | Velocity (PhnO enzyme; AMPA substrate 4000 nm): 544 nm per minute per mg of protei | % Turnover (PhnO enzyme; AMPA substrate 6000 nm): 12.7% | Velocity (PhnO enzyme; AMPA substrate 6000 nm): 762 nm per minute per mg of protei | % Turnover (PhnO enzyme; AMPA substrate 7600 nm): 10% | Velocity (PhnO enzyme; AMPA substrate 7600 nm): 760 nm per minute per mg of protei | apparent Vmax (PhnO enzyme; AMPA substrate, Lineweaver-Burk plot): about 824 U/mg protein | Km (PhnO enzyme; read-out: apparent Km of PhnO for AMPA as a substrate, Lineweaver-Burk plot of Table 8 data): ~9 mM | phytotoxic effect on plants ([1]; 64 ounces per acre, eight days post-application): Leaf chlorosis and stunted growth | phytotoxic effect on plants ([1]; 640 ounces per acre, four days post-application): Leaf chlorosis and stunted growth

N-phosphono-methyl-glycine [Glyphosate]
% [^14C] metabolite in New Growth Extract: N-Acetyl-AMPA [2]: 1.9% | % [^14C] metabolite in Glyphosate Treated Leaf Extract: AMPA ([2]; listed as [^14C]-Glyphosate): 6-27% | % [^14C] metabolite in Glyphosate Treated Leaf Extract: Glyphosate ([2]; listed as [^14C]-Glyphosate): 59.8% and 92.7% and 81.2% and 86.2% | % [^14C] metabolite in Glyphosate Treated Leaf Extract: N-Acetyl-AMPA ([2]; listed as [^14C]-Glyphosate): 0.8% and 1.0% | % [^14C] metabolite in New Growth Extract: AMPA ([2]; listed as [^14C]-Glyphosate): 72-86% | % [^14C] metabolite in New Growth Extract: Glyphosate ([2]; listed as [^14C]-Glyphosate): 93% | male gametes killed (male gametes): about 95% | female gametes left capable of fertilization (female gametes): 40-60%
